Results published in patent US12102672B2, “Immunogenic sequences from a phage tail length tape measure protein, bacteria expressing the same and their use in treating a cancer” (INSTITUT GUSTAVE ROUSSY, priority 2017, dated 2024).
“Also recorded” adds a separate entry of the source.

Key:
[1] = system: MCA205 sarcoma; conditions: cited from earlier work; for anti-tumor immune response: FIG. 1D of Daillère et al., 2016
[2] = system: splenic CD8+ T cells; test: IFNγ ELISpot recall assay of splenic CD8+ T cells with DCs pulsed with heat-inactivated bacteria or peptides; assay type: cell-based, mice; conditions: for memory Tc1 immune response (IFNγ spots) to BM-DC infected with EH isolates: Example 2, FIG. 10, splenic CD8+ T cells after gavage + CTX, ELISPOT at 24 hrs; for specific TC1 immune responses after restimulation with E. hirae strains loaded onto DC: Example 12, FIG. 27D, prime-boost exposure + CTX
Procedure: FIG. 9. Experimental immunization protocols to elucidate the immunogenicity of EH peptides. […] 5 days after the first oral gavage, mice are treated with CTX. One week post-CTX, CD8+ T cells are isolated from spleen. These CD8+ T cells are incubated with dendritic cells (DCs) pulsed with 20 μg/ml of peptides (during 1 hour) or with heat-inactivated bacteria (during 6 hours). Inactivation of bacteria consists in incubation at 65° C. during 2 hours. After 24 hours of culture, ELIspot of IFNγ is performed.
FIG. 10. Cross-reactivity between the two E. hirae 708 and 13144 species for CTL splenic reactivity. Number of IFNγ spot representing IFNγ-secreting CD8+ T cells after co-culture with DCs pre-incubated with or without heat-inactivated bacteria (708, 13144, EH17 and L. plantarum).
FIG. 13. Peptides from group 7 containing the TMP1 and TMP2 epitopes activate CD8+ T cells from spleen of mice immunized against E. hirae 13144. Number of IFNγ spot, representing IFNγ-secreting CD8+ T cells, after incubation with DCs pulsed with 13 different group of peptide (Table 6). Just group n° 1 (A) and group n° 7 (B) are shown. (C, E) Number of IFNγ spot, representing IFNγ-secreting CD8+ T cells, after incubation with DCs pulsed with 4 peptides belong to group n° 7 (in table 7). (D) Sequence alignment of TMP1 and TMP2 of EH10815 (SEQ ID Nos: 228 and 229 respectively) compared to EH13144 (fragments of SEQ ID NO: 1) at the level of immunogenic peptides. Amino acid sequence […] corresponds to SEQ ID No: 13. Amino acid sequence […] corresponds to SEQ ID No: 217. Amino acid sequence […] corresponds to SEQ ID Nos: 14. Amino acid sequence AlIEFIKGL corresponds to SEQ ID No: 218. (E) In vitro reactivity of splenic CTL in a recall response to TMP1 and TMP2 as well as Group7 after in vivo immunization with other strains of EH.
(§1) A and C. Experimental setting. […] D-E. Ex vivo recall assays. […] Each dot represents one mouse.

[3] = system: CD8+ and CD4+ T cells; test: Flow cytometry of T cells in mLN, spleen and tumor after oral gavage with E. hirae and CTX; assay type: in vivo, mice; conditions: for accumulation of CD8+ T cells in mLN and spleen: mLN after 1 week, spleen after 2 weeks
Procedure: FIG. 7. […] (A) Experimental setting. […] One day post-CTX, a second oral gavage with E. hirae is performed. 72 hours post-CTX, CD4+ and CD8+ T cells are isolated from mesenteric lymph node (mLN). Percentage of CD8+(B) and CD4+(C) T cells in mLN after oral gavage with E. hirae 708 or 13144 and CTX treatment. (D) Experimental setting. […] 5 days after the first oral gavage, mice are treated with CTX. One week post-CTX, CD8+ T cells are isolated from spleen. Percentage of CD8+ T cells (E) and CCR9+CXCR3+CD8 T cells (F) in spleen after oral gavage with E. hirae 708 or 13144 and CTX treatment.

[4] = system: colon mucosae; test: Colon inflammatory infiltrates (HES staining) after E. hirae gavage and CTX; assay type: in vivo, mice; conditions: for inflammatory infiltrates of colon mucosae: mice without tumor, oral gavages + CTX, versus without commensals
Procedure: FIG. 11. Effects of EH on gut inflammation and role of CD8+ T cells in this inflammation: EH-specific CTL amplified in the mLN may return into the lamina propria. (A) Experimental setting. […] Then, we performed oral gavage with E. hirae (708 or 13144) and anti-CD8 injection (200 μg per mice) every three days for a total of 4 gavages/injections. 5 days after the first oral gavage, mice are treated with CTX. One week post-CTX, colon is removed for Hematoxylin Eosin Staining (HES). (B) Extent of inflammatory infiltrates in colon of mice colonized with E. hirae and treated with anti-CD8 ablating Abs and CTX.
FIG. 18. […] (A) Experimental setting. […] Then we performed oral gavage with E. hirae (708 or 13144) every three days for a total of 4 gavages. 5 days after the first oral gavage, mice were treated with CTX. One week post-CTX, colons are removed to be embedded in PPFE for Hematoxylin, Eosin and Safran staining (HES). (B) Extent of inflammatory infiltrates in colons of mice bearing MCA205 tumors or not and colonized with E. hirae and treated with CTX. Student t′-test statistical analyses: ** p<0.01.

[5] = system: MCA-205 sarcoma; test: MCA205 sarcoma growth in antibiotic-treated SPF C57BL/6 mice, CTX plus oral gavage with bacteria; assay type: in vivo; conditions: ATB 3 days, CTX 100 mg/kg x3, weekly oral gavages, FIG. 27B
Procedure: as §1
A-B. Prophylactic vaccinations. […] C-D. Therapeutic settings.
Mice were treated during 3 days with an antibiotic solution (ATB) containing ampicillin (1 mg/ml), streptomycin (5 mg/ml), colistin (1 mg/ml) (Sigma-Aldrich) and vancomycin (0.25 mg/ml) added in the sterile drinking water of mice. Antibiotic activity was confirmed by cultivating fecal pellets resuspended in BHI+15% glycerol at 0.1 g/ml on COS (BD Columbia Agar with 5% Sheep Blood) plates for 48 h at 37° C. in aerobic and anaerobic conditions. In the context of bacterial transplantation experiments, mice received 3 days of ATB before undergoing bacterial transplantation the next day by oral gavage using animal feeding needles.
Syngeneic C57BL/6 mice were implanted with 0.8×10^6 MCA-205 WT sarcoma cells subcutaneously and treated intraperitoneally (i.p.) when tumors reached 20 to 35 mm^2 in size with CTX (100 mg/kg). Depending on the experimental setting, mice were injected once or 3 times at 1-week interval. Tumor size was routinely monitored every 3 days by means of a caliper.
Enterococcus hirae 13144 were originally isolated from spleens of SPF mice treated with CTX in our laboratory.

Enterococcus hirae 708 [Peptide 708, reference compound]
anti-tumor immune response [1]: fails to do so
memory Tc1 immune response (IFNγ spots) to BM-DC infected with EH isolates [2]: could induce memory Tc1 immune responses
specific TC1 immune responses after restimulation with E. hirae strains loaded onto DC [2]: failed to do so
TC1 response against TMP1 in mice gavaged with the strain (IFNγ ELISpot) ([2]; Example 12, FIG. 27E): unable to do so
accumulation of CD8+ T cells in mLN and spleen [3]: capable of inducing the accumulation of CD8+ T cells
inflammatory infiltrates of colon mucosae [4]: more infiltrated
restoration of antibiotic-perturbed anticancer effects of CTX (MCA205 growth) [5]: reduced anticancer effect

Enterococcus hirae strain 13144 [Peptide 13144]
restoration of CTX-mediated antitumor effects ([1]; 14 day-ATBs, oral gavage): selectively restored the CTX-mediated antitumor effects
anti-tumor immune response [1]: induces an efficient anti-tumor immune response
memory Tc1 immune response (IFNγ spots) to BM-DC infected with EH isolates [2]: could induce memory Tc1 immune responses
specific TC1 immune responses after restimulation with E. hirae strains loaded onto DC [2]: triggered specific TC1 immune responses
CD4+ T cell pool in the mLN ([3]; 72 hours post-CTX): amplified
accumulation of CD8+CCR9+CXCR3+ T cells in spleen and tumor beds ([3]; listed as EH13144): induce accumulation; also recorded: Sustained accumulation
accumulation of CD8+ T cells in mLN and spleen ([3]; listed as E. hirae 13144): Increased accumulation
accumulation of CD8+ T cells in mLN and spleen ([3]; listed as EH13144): capable of inducing the accumulation of CD8+ T cells
colon inflammatory lesions in tumor bearers ([4]; mice bearing MCA205 sarcoma versus naive, listed as E. hirae 13144): markedly reduced; also recorded: prevents the gut inflammatory lesions
inflammatory infiltrates of colon mucosae [4]: more infiltrated
restoration of antibiotic-perturbed anticancer effects of CTX (MCA205 growth) [5]: efficient
